Experimental findings from patent publication US20230158071A1, “TUMOR COMBINED IMMUNOTHERAPY” (CRAGE medical Co., Limited, priority 2018, published 2023) are described below.

The structures appear in SMILES notation.

In one experiment the test system is mouse T cells. The experiment can be described thus: In vitro proliferation of mouse T cells (JQ1). It is filed as cell-based. The note with it: JQ1, dose-dependent manner. The text has this:
(§1) Another small molecule drug JQ1 is a BET bromodomain inhibitor acting on BRD4, it may induce tumor cell apoptosis (i.e., slow proliferation) by targeted inhibition of BRD4, thereby achieving anti-tumor effects.

A further experiment has as its system mouse CAR-T cells. As to the kind of experiment: In vitro proliferation of mouse CAR-T cells (veliparib, JQ1). Format: cell-based.
From the text: as §1

The next experiment relates to E0771ERVIII cells. The experiment can be described thus: In vitro proliferation of E0771ERVIII cells (veliparib, JQ1). Format: cell-based, mouse.
From the text: as §1

A further experiment has as its system CART cells. The experiment can be described thus: LDH cell killing experiment with veliparib. The note with it: 100 μM. Format: cell-based.
From the text: as §1

Take `Cc1sc2c(c1C)C(c1ccc(Cl)cc1)=N[C@@H](CC(=O)OC(C)(C)C)c1nnc(C)n1-2` [JQ1]: in the experiment with mouse T cells, the “proliferation of mouse T cells” value is “significantly inhibit”. The “proliferation of CAR-T cells” value with mouse CAR-T cells (JQ1, dose-dependent manner) was “significantly inhibit”. In addition, the “proliferation of E0771ERVIII cells” value in the experiment on E0771ERVIII cells (different concentrations of JQ1 for 48 h) is on record as “could not inhibit”.
Consider `C[C@]1(c2nc3c(C(N)=O)cccc3[nH]2)CCCN1` [veliparib], for which the “killing effect of CART cells” value in the experiment on CART cells was “could not improve”. Further, in the experiment with mouse CAR-T cells (veliparib at 20 μM or more), the “proliferation of mouse CAR-T cells” value was “significantly inhibit”. Also, in the experiment on E0771ERVIII cells (in vitro), the “concentration level that may affect the proliferation level of E0771ERVIII cells” value was not below 10 µM and the “concentration that may significantly inhibit the proliferation of E0771ERVIII cells” value was not below 20 µM.
